From patent publication US20050075398A1, “Neuroprotectin D1 protects against cellular apoptosis, stroke damage, alzheimer's disease and retinal diseases” (priority 2003, published 2005)

Experiments:
[1] = tested on: COX-1 expression; experiment: COX-1 mRNA abundance in ipsilateral hippocampus after MCA-O; assay type: in vivo, mouse; conditions: 1 h MCA-O, 2 h reperfusion, NPD1 0.16 μg/ml infused
Protocol: COX-2 RNA abundance in hippocampus and HN cells. Abundance of human-specific COX-1 and COX-2 RNA message was assayed using RT-PCR as described in Bazan, N. G., and Lukiw, W. J. (2002) J. Biol. Chem. 277, 30359-30367.
To determine COX-1 and COX-2 expression, mRNA abundance in the ipsilateral hippocampus was measured. […] A 3-fold increase of COX-2 was seen due to MCA-O reperfusion (FIG. 7C). The infusion of the precursor DHA as well as its product 10,17S-docosatriene (NPD1) inhibited COX-2 expression by 14% and 52%, respectively.

[2] = tested on: IL-1β-induced NF-κB activation; experiment: EMSA of NF-κB in IL-1β-exposed human neural progenitor cells; assay type: cell-based; conditions: HN progenitor cells, IL-1β 10 ng/ml 3 h
Protocol: Human neural (HN) progenitor cells in primary culture. HN cells were grown to ˜70% confluence (˜50,000 cells per 3.5-cm diameter well) in 6-well COSTAR plates at 37° C., 5% CO2/20% O2/75% N2 in humidified air at 1 atm (normoxic conditions) in NPMM medium (Clonetics CC-4241) supplemented with hFGF, NSF-1, hEGF, GA-1000, as described by the manufacturer (Clonetics, Walkersville, Md.). HN cells tested negative for HIV-1, hepatitis B and C, mycoplasma, bacteria, yeast, and fungi, and positive for the glial and neuronal markers GFAP, MAP2, and β-tubulin III (Clonetics). […]
Electrophoretic mobility-shift assay (EMSA) of human AP1, HIF-1α, NF-κBp50/p65, and STAT-1α. Nuclear protein extracts (NPXTs) were prepared from one to three 3.5 cm-diameter wells of HN cells and quantitated. NPXTs (5 μg) derived from HN cells were incubated with[γ-^32P]-ATP (˜3000 Ci/mmol)-end-labeled AP1, HIF-1α, NF-κκBp50/p65, or STAT-1α consensus and mutant oligonucleotides in 5-μl volumes, reacted for 30 min on ice, analyzed on 5% or 10% acrylamide/90 mM Tris-borate pH 8.4, 1 mM EDTA (TBE) gels, dried onto 2-mm Whatman filter paper at 80° C. for 2 h, and phosphorimaged using a Typhoon Variable Mode Imager (Amersham Pharmacia Biotech, Piscataway, N.J. ).

[3] = tested on: Bik gene expression; experiment: HGU133 GeneChip DNA array in HN cells: Bik; assay type: cell-based, human; conditions: Aβ42 25 μM, DHA 50 nM or NPD1 50 nM, 18 h, nsc = no significant change
From the text: RNA Isolation and Spectral Quality. Brain tissues were rapidly processed, and total RNA was extracted using Trizol reagent (Invitrogen, Carlsbad, Calif.). Total RNA quality and abundance were profiled using RNA Nano LabChips (Caliper Technologies, Mountainview, Calif.; Agilent Technologies, Palo Alto, Calif.).
Probe Synthesis and GeneChip Hybridization. Biotinylated antisense cRNAs were synthesized from cDNA using the Superscript Choice System (Invitrogen) and Enzo Biorray High Yield RNA Transcript Labeling kits according to the manufacturer's protocols (Affymetrix) and as described in Colangelo, V., Schurr, J., Ball, M. J., Pelaez, R. P., Bazan, N. G., Lukiw, W. J. (2002) J. Neurosci. Res., 70: 462-473; and Lukiw, W. J. (2004) Neurochem. Research, 29: 1287-1297. Probes were hybridized against HU133Av2 GeneChip DNA arrays that interrogate approximately 33,000 full-length […] genes and expressed sequence tag (EST) clusters. […]
GeneChip Data and Statistical Analysis. […] Volcano plots were plotted representing total gene expression patterns as a function of fold-change as compared to expression patterns of age-matched controls as plotted against p, as calculated by an analysis of variance (ANOVA). […] Statistical significance was analyzed using a two-way factorial analysis of variance (p, ANOVA; Statistical Analysis System; SAS Institute, Cary, N.C. ).

[4] = tested on: COX-2 gene expression; experiment: HGU133 GeneChip DNA array in HN cells: COX-2; assay type: cell-based, human; conditions: Aβ42 25 μM, DHA 50 nM or NPD1 50 nM, 18 h, nsc = no significant change
[5] = tested on: ARPE-19 cells; experiment: A2E-induced apoptosis in ARPE-19 cells (Hoechst staining); assay type: cell-based, human; conditions: A2E up to 200 μM
Protocol: To test the ability of NPD1 to inhibit A2E oxidative stress, ARPE-19 cells grown in 6-well plates were transfected by Fugene 6 with NF-κB promoter sequence linked to a luciferase reporter gene and with IκB-EGFP. Promoterless β-galactosidase was co-transfected in ARPE-19 cells to determine the transfection efficiency. Four hours after transfection, cells were washed and further incubated 8 to 10 h before adding inducers. Two different set of cells were used. One set of cells was serum-starved 5 h before the addition of A2E and TNF-α/H2O2, and further incubated for 20-24 h before harvesting. The other set of cells was not serum-starved or further incubated. Luciferase activity was measured. The IκB-EGFP probe was measured by fluorescence confocal microscopy, and Hoechst-positive cells were identified.

## CC/C=C\C[C@H](O)\C=C/C=C/C=C/[C@H](O)C/C=C\C/C=C\CCC(=O)O [NPD1, 10,17S-docosatriene]
[1]
  decrease of COX-1 expression (mRNA): 19%
[2]
  concentration at which inhibitory effect on NF-κB is seen (as low as): 0.3 nM
[2]; concentration-dependent
  effect on IL-1β-induced NF-κB activation: down-regulated
[3]
  Bik gene expression, fold change over untreated controls: nsc
[4]
  COX-2 gene expression, fold change over untreated controls: nsc
[5]
  effect on A2E-induced apoptosis: inhibited
